Laboratory results from PMC5055185, “Dual pharmacological inhibition of glutathione and thioredoxin systems synergizes to kill colorectal carcinoma stem cells” (Cancer Medicine, 2016).
pIC50: −log10 of the molar value. “And” between values parts separate entries of the source, which are not always exact repeats. Equal entries are not always repeated.

Key:
[1] = system: NRF2 target genes in human embryonic fibroblasts OUMS36 or TIG-3; assay: qRT-PCR of NRF2 and TP53 target genes in fibroblasts; format: cell-based; conditions: auranofin 2 μmol/L or piperlongumine 5 μmol/L for 24 h
Experimental: Total RNA was purified using RNAiso Plus (Takara, Osaka, Japan). Reverse transcription was performed using PrimeScript™ with gDNA Eraser (Takara). For quantifying the copy number of each mRNA, we used a StepOne™ Real‐Time PCR System (Applied Biosystems, Waltham, MA) and the Taqman® method. Data were calculated according to the modified delta‐cycle of threshold (ΔCT) method. Normalized Log2 expression was defined as follows: (Log2 expression of a gene of interest) = 30 (arbitrary constant) + (CT of 18S rRNA) − (CT of a gene of interest). We used Log2 parameter for statistical analysis because mRNA expression follows a log‐normal distribution, whereas ΔCT follows normal distribution. A gene‐specific fluorescent probe was designed using a web‐based program (https://qpcr.probefinder.com/organism.jsp). […] Gene‐specific Taqman® probes were purchased from Life Technologies, (Waltham, MA, for Cat#, see Table S1 SpreadSheet2). For PCR, Thunderbird® Probe qPCR mix (Toyobo, Osaka, Japan) was used and the PCR conditions consisted of 40 cycles of two steps (95°C for 15 sec and 60°C for 50 sec).
To investigate whether NRF2 compensation occurs in fibroblasts, we quantified gene induction of NRF2 target genes by auranofin (2 μmol/L for 24 h) or piperlongumine (5 μmol/L for 24 h). […] Basal phosphorylation of NRF2 was lower in fibroblasts, compared to CTOSs (Fig. S5B). The significance of expression changes due to the exposure were as follows: GCLM (Fig. S6, Aura: P = 0.001, up‐regulated, Pipe: P = 0.009, up‐regulated), TXNRD1 (Fig. S6, Aura: P = 0.001, up‐regulated, Pipe: P = 0.439), and G6PD (Fig. S6, Aura: P = 0.001, up‐regulated, Pipe: P = 0.130).
Human embryonic fibroblasts OUMS36 or TIG-3 was incubated with designated concentration of inhibitor for 24 hours. mRNA expression of each gene was quantified by real-time RT-PCR and expression level was indicated as relative Log2 expression. Each bar indicates mean value of Log2 expression (n=3 at different passage points). Error bar indicates standard deviation. P-values of difference are described in Results.

[2] = system: phosphorylated NRF2 in colorectal CTOSs; assay: NRF2 phosphorylation by western blotting, colorectal CTOSs; format: cell-based, human; conditions: 24 hours, Auranofin 2µM, Piperlongumine 5µM, CB83 12.5 µM
Experimental: From colorectal CTOS, whole‐cell proteins were dissolved with solubilizer (7 mol/L urea, 2 mol/L thiourea, 2% Triton X‐100, Wako) and the entangled genomic DNA was sheared by sonication for 30 min. Procedures for immunoblotting have been described elsewhere 6, 10. Primary antibodies used in this study are as follows: phosphorylated NRF2 from Abcam (#76026) and Histone H3 from Cell Signaling Technologies (#4499, Danvers, MA). Phosphorylation of NRF2 is well correlated with nuclear accumulation in HCCs 6. Representative data are shown in the figures; all experiments were reproduced at least twice with different passage points.
Colorectal CTOSs were incubated with each inhibitor for 24 hours. Whole cell proteins were extracted and each well was loaded with same amount of proteins (40 µg for NRF2 and 10 µg for H3). Phosphorylation of NRF2 was measured by western blotting. Blotting for histone H3 serves as loading control.

[3] = system: CTOS71 colorectal cancer tissue‐originated spheroids; assay: cell survival (trypan blue exclusion, 5 days), CTOS71; format: cell-based, human; conditions: for pIC50: CTOS71, cellular survival, 5 days; for Ratio of survived cells (Drugs treated/Untreated), Average / Ratio of survived cells (Drugs treated/Untreated), single passage points #: CTOS#71
Description: All experimental procedures were approved by the animal facility at Dokkyo Medical University (ID: 951) and were described elsewhere 10. The existence of CSCs has been experimentally proven through serial xenotransplantation and tumorigenesis 2, 14. […] These subcutaneous tumors were again subjected to enzymatic dissociation and some of the tumor cells were subcutaneously transplanted into other mice. […] Seven cases (CTOS:40, 42, 68, 71, 76, 86, 88) were used for in vitro experiments.
Modified procedures of CTOS culture 16 were described elsewhere 10. […] The culture medium was serum‐free advanced DMEM/F‐12 (GIBCO, Waltham, MA) supplemented with FGF‐2 (10 ng/mL, ReproCell, Yokohama, Japan), penicillin ([…], Wako, Osaka, Japan), streptomycin (0.1 mg/mL,Wako), gentamicin (50 μg/mL, Wako), and fungizone (0.25 μg/mL, GIBCO). DLD‐1 and HCT116 CRC cell lines were purchased from JCRB Cell Bank (Osaka, Japan) and RIKEN BioResource Center (Ibaraki, Japan), respectively. In order to estimate pharmacological side effects against normal tissues, human diploid fibroblasts were purchased (JCRB Cell Bank) as model cells. The origins of the fibroblasts were as follows: OUMS‐36 (embryo), TIG‐3 (fetal lung), TIG‐111 (dermal fibroblasts [DFs] from individual), TIG‐119 (DFs from individual), and TIG‐102 (DFs from individual). Adult DFs were purchased from Kurabo (Osaka, Japan). CRC cell lines and fibroblasts were maintained under supplier‐recommended culture conditions. Since the culture conditions are different between fibroblasts and CTOSs, we need to be cautious about the interpretation of data (i.e., lateral comparison between them). […] Colorectal CTOSs display augmented survival through maintaining epithelial structure with E‐cadherin 16. On the other hand, the establishment of conventional cell lines (adherent culture) are much less efficient because constant cell division and autonomous survival are required for the procedure. When we choose CTOSs instead of cancer cell lines, we lose the equivalent condition (adherent culture) as a trade‐off.
Each drug's half‐maximal inhibitory concentration (IC50) was calculated based on live cell number ratios (drug treated/untreated × 100%) obtained from serial dilution of drug concentration. The length of drug exposure was 5 days. Each number of live cells was counted automatically by trypan blue exclusion (LUNA automated cell counter, Logos Biosystems, Anyang, South Korea). Cancer spheroids were dispersed with serial treatments (20 min each) of TrypLE™ and Accumax™. Thus, IC50 was determined based on cellular survival, but not on proliferation.

Structure (SMILES) | G6PD mRNA expression change [1] | GCLM mRNA expression change [1] | TXNRD1 mRNA expression change [1] | NRF2 phosphorylation [2] | pIC50 [3] | Ratio of survived cells (Drugs treated/Untreated), Average ([3]; Aura 1 microM) [%] | Ratio of survived cells (Drugs treated/Untreated), single passage points # ([3]; Aura 1 microM) | Ratio of survived cells (Drugs treated/Untreated), Average ([3]; Aura 2 microM) [%] | Ratio of survived cells (Drugs treated/Untreated), Average ([3]; Aura 4 microM) [%] | Ratio of survived cells (Drugs treated/Untreated), Average ([3]; Pipe 2.5 microM) [%] | Ratio of survived cells (Drugs treated/Untreated), single passage points # ([3]; Pipe 2.5 microM) | Ratio of survived cells (Drugs treated/Untreated), Average ([3]; Pipe 5 microM) [%] | Ratio of survived cells (Drugs treated/Untreated), Average ([3]; Pipe 10 microM) [%] | Ratio of survived cells (Drugs treated/Untreated), single passage points # ([3]; Pipe 10 microM)
CC[PH](CC)(CC)[Au][S][C@@H]1O[C@H](COC(C)=O)[C@@H](OC(C)=O)[C@H](OC(C)=O)[C@H]1OC(C)=O [Aura, Auranofin] | up‐regulated | up‐regulated | up‐regulated | efficiently phosphorylated | 5.66 | 70.2 | 81% and 77% and 62% and 56% and 75% | 55.3333 | 33.1429 | – | – | – | – | –
COc1cc(/C=C/C(=O)N2CCC=CC2=O)cc(OC)c1OC [Pipe, Piperlongumine] | – | up‐regulated | – | efficiently phosphorylated | 5.22 | – | – | – | – | 80.8 | 96% and 59% and 102% and 88% | 60.8 | 27.8 | 21% and 20% and 35% and 27% and 36%
